Measured values published in patent US5248771A, “Process for preparing no-carrier-added radiohalogenated vinyl nucleosides” (Triumf, priority 1991, dated 1993).
Read-outs that look alike come from different tables or passages of the source.

Assays:
herpes infected tissue = conditions: S. Sacks, Abstract 97, 1988 Interscience Conference; cited from earlier work
[1] = cited from earlier work
[2] = cited from earlier work; remark: listed apart in the source
herpes virus = conditions: depending on the strain of herpes virus; cited from earlier work
[3] = test system: herpes simplex virus 1 (HSV1); assay: in vivo; set-up: species or system HSV1; A/J mice
Text: (§1) This example measured the biodistribution of [^125 I]-IVaraU in the bodies of mice infected with HSV throughout the entire body. The brain was emphasized. Various uninfected controls were included to make the interpretation clear.
(§2) […] strain A/J mice were used in all: (i) with [^125 I]IVaraU, 20 mice received HSV1 and 20 mice were uninfected; and (ii) with [^125 I]NaI (a control compared to IVaraU), again 20 mice received HSV1 and 20 mice were uninfected.
(§3) INFECTION: Seven days prior to injection of the drug, each A/J mouse was inoculated by scratching the lip and applying a suspension of herpes simplex virus 1 (HSV1); this was the Kastrukoff murine-adapted strain of HSV1. This inoculation technique is a literature technique which has been established to cause herpes foci of herpes infection in the brains of over 99% of mice so inoculated. See Kastrukoff LF, Lau AS, and Puterman ML. J Gen Virol 67 (1986) 613-621. The HSV1 inoculation may be considered to take place at time "zero minus seven days". ADMINISTRATION OF THE RADIOPHARMACEUTICAL: The mice were divided into four experimental groups based on the two variables +/- HSV1, and IVaraU/NaI. The infected mice were being compared to non-infected mice. The radiopharmaceutical ([^125 I]IVaraU or [^125 I]NaI) was diluted to give 1μ Curie per 100 μL. 100 μL was then injected into the tailvein of each mouse. (Injection may be considered to take place at "time zero".) ANALYSIS OF INDIVIDUAL BODY ORGANS: At times 1h, 4h, 24h, and 48h, 5 mice were taken from each experimental group and sacrificed by exsanguination (the carotid artery was severed with a surgical scalpel). Blood was collected. Each animal was dissected, and the following organs were removed: brain, liver, kidney, pancreas, spleen, stomach, heart, lung, and muscle. Each organ or tissue specimen was weighed and then ^125 I activity was counted in a gamma ray counter. From the data weight, ^125 I, and ^125 I injected dose result values of "% dose per gram" were calculated for the different tissue specimens.

in vivo = assay: in vivo; set-up: species or system HSV1; A/J mice; conditions: mouse, in vivo, iv, 1 μCurie in 100 μL i.v. tail vein, read-out: brain uptake, % dose per gram in entire brain
Text: as §1, §2, §3

HSV-1 (ATCC Strain F) = assay: [125I]IVaraU uptake into HFF cells infected with HSV-1, gamma activity per tube; assay type: cell-based, HSV-1; HFF (Human Foreskin Fibroblast) cells; conditions: HSV-1 (ATCC Strain F) infected HFF cells, MOI 1.0, 2.3×10^6 cpm/ml, 6 hours, 37° C.
Description: (§4) Upright roller tubes were seeded with 1.5×10^5 HFF (Human Foreskin Fibroblast) cells/tube in a volume of 1.0 ml of Minimal Essential Medium (MEM) with added 5% FCS (Fetal Calf Serum) and incubated at 37° C. overnight. The growth media was poured off and replaced with 1.0 ml of viral growth media (Med 199 Hank's salts with 2% FCS) containing ^125 I-IVaraU (2.3×10^6 cpm/ml). 100 μl of virus (diluted to appropriate concentration in viral growth media) was added to assay tubes. In this case, a multiplicity of infection of 1.0 was used. 100 μl of viral growth media was added to the control (viral uninoculated) tubes.
(§5) The tubes were centrifuged 5000 g×30 minutes at 37° C., incubated at 37° C., 5% CO2 for 6 hours, and the media was then poured off. The tubes were washed with 4×2 mls warm "cell" phosphate buffered saline (PBS), and 1.0 ml of trypsin-versene solution was added and the tubes were incubated at 37° C. for 5-10 minutes. The cell sheets were removed and transferred to 4 ml polystyrene tubes. The gamma activity was counted with a Gamma counter.

HSV-2 (ATCC Strain G) = assay: [125I]IVaraU uptake into HFF cells infected with HSV-2, gamma activity per tube; assay type: cell-based, HSV-2; HFF (Human Foreskin Fibroblast) cells; conditions: HSV-2 (ATCC Strain G) infected HFF cells, MOI 1.0, 2.3×10^6 cpm/ml, 6 hours, 37° C.
Description: as §4, §5

HSV1 strain KOS = assay: [125I]IVaraU uptake in rabbit brain infected with HSV1, gamma counts of brain blocks; assay type: in vivo, HSV1; New Zealand White rabbits
Description: The rabbit brains were infected with HSV1and then [^125 I]IVaraU was injected. The infection was located by assaying for herpes antigen and also by considering the brain anatomy involved. The assay was performed for [^125 I]IVaraU by gamma ray counts on segments cut from the brain.
INFECTION: Three New Zealand White female rabbits ([…], 2.5-5.0 kg) were anaesthetized by standard intramuscular injections of ketamine and xylazine. A 3.5 inch french tomcat catheter was introduced into the right nostril and 100 μL of the virus inoculation solution was released onto the right cribiform plate (this is a non-invasive means to create a brain infection). The virus inoculation solution consisted of 3.7×10^6 plaque forming units per mL HSV1 strain KOS suspended in commercial media of the type "199 with Hanks' salts". Two rabbits denoted "A" and "B" received the virus suspension exactly as described. A third rabbit denoted "C" was a "control"; it received 100 μL "199 with Hanks' salts" but no virus. The three rabbits were returned to their cages; infection was allowed to develop for 5 days before the injection of [^125 I]VaraU was carried out. INJECTION OF DRUG: 5 days following HSV1 inoculation, each rabbit was given 0.1 to 0.2 millicuries [^125 I]IVaraU suspended in 1 mL standard phosphate buffered saline PBS). The drug was administered by injection into the right marginal ear vein. SACRIFICE OF THE RABBITS: 24H after the [^125 I]IVaraU injection, the rabbits were sacrificed by an overdose of the drug Somnotol (T.M.) (MTC Pharmaceuticals). Following death, each rabbit was perfused with 300-400 mL PBS introduced into the ascending aorta. (The perfusion procedure served to remove blood from vessels in the brain and the body in general.)
The skull was dissected; the brain was cut out and removed. The brain was then sectioned into thirty 0.5 cm thick coronal blocks. The cutting and numbering of the blocks was carried out in a systematic way with respect to brain anatomy. Brain blocks were immersed and stored in 10% formalin. COUNTING OF ^125 I ACTIVITY IN BRAIN BLOCKS: Each block was weighed and then counted in a well-type gamma ray counter. The "counts per minute per gram" was calculated for each block of tissue for rabbits "A", "B" and "C". From each "cpm per gram" in infected rabbits "A" and "B" was subtracted the "cpm per gram" in the corresponding brain block from the uninfected rabbit "C". (The typical value of "cpm per gram" was about 20,000 cpm per gram in rabbit "C".)

[4] = test system: HFF (Human Foreskin Fibroblast) cells; assay: [125I]IVaraU uptake into uninoculated HFF cells (control), gamma activity per tube; assay type: cell-based; conditions: 2.3×10^6 cpm/ml, 6 hours, 37° C.
Description: as §4, §5

HSV 1 infected cells = assay: uptake of [125I]IVaraU by HSV 1 infected cells compared with uninfected and HSV 2 infected cells; assay type: cell-based
Description: as §4
as §5, with “counter. […]” for “counter.”

## O=c1[nH]c(=O)n([C@@H]2O[C@H](CO)[C@@H](O)[C@@H]2O)cc1/C=C/[123I] [[^123 I]IVaraU]
Herpes infected tissue
  concentrated in herpes infected tissue: concentrated in herpes infected tissue

## O=c1[nH]c(=O)n([C@@H]2O[C@H](CO)[C@@H](O)[C@@H]2O)cc1/C=C/I [IVaraU]
[1]
  potency in vivo per unit weight: highly potent in vivo per unit weight
[2]
  metabolic stability in vivo: appeared metabolically stable in vivo
Herpes virus
  concentration effectively inhibiting herpes virus: approximately 1×10^-9 g/mL

## O=c1[nH]c(=O)n([C@@H]2O[C@H](CO)[C@@H](O)[C@@H]2O)cc1/C=C/[125I] [[^125 I]IVaraU]
[3]; 1H
  brain uptake Ratio infected/uninfected: 1.18
[3]; 4H
  brain uptake Ratio infected/uninfected: 1.57
[3]; 24H
  brain uptake Ratio infected/uninfected: 15.8
[3]; 48H
  brain uptake Ratio infected/uninfected: 36.2
In vivo; Infected
  tissue uptake at 1 h: 1.49 %ID/g
  tissue uptake at 4 h: 0.36 %ID/g
  tissue uptake at 24 h: 0.0379 %ID/g
  tissue uptake at 48 h: 0.0181 %ID/g
In vivo; Uninfected
  tissue uptake at 1 h: 1.27 %ID/g
  tissue uptake at 4 h: 0.229 %ID/g
  tissue uptake at 24 h: 0.0024 %ID/g
  tissue uptake at 48 h: 0.0005 %ID/g
HSV-1 (ATCC Strain F)
  Activity/Tube (Average): 59,914 cpm
HSV-2 (ATCC Strain G)
  Activity/Tube (Average): 14,462 cpm
HSV1 strain KOS; infected rabbits A and B minus uninfected C, forebrain
  (corrected) activities in brain regions: higher in the forebrain, especially in the olfactory lobes
HSV1 strain KOS; infected rabbits, corrected
  activities towards the hindbrain: approached background
  activity in right olfactory lobe vs trigeminal ganglia and Level 1: higher than in the trigeminal ganglia and Level 1
HSV1 strain KOS; infected rabbits, corrected, virus given in right nostril
  activity in right vs left olfactory lobe: higher in the right olfactory lobe than the left
HSV1 strain KOS; uninfected rabbit "C", 24H after 0.1 to 0.2 millicuries i.v.
  typical cpm per gram in brain blocks of uninfected rabbit C: about 20,000 cpm per gram
[4]
  Activity/Tube (Average): 1,332 cpm
HSV 1 infected cells; HSV 1 vs HSV 2 infected cells
  uptake by HSV 1 vs HSV 2 infected cells: HSV 1 infected cells took up more radio compound than HSV 2 infected cells
HSV 1 infected cells; vs uninfected cells
  specific uptake by HSV 1 infected cells: taken up specifically by HSV 1 infected cells, as compared with uninfected cells

## O=c1[nH]c(=O)n([C@@H]2O[C@H](CO)[C@@H](O)[C@@H]2O)cc1/C=C/Br [BrVaraU, (E)-5(2 bromo vinyl)-arabinofuranosyl uracil]
[2]
  metabolic stability in vivo: appeared metabolically stable in vivo

## O=c1[nH]c(=O)n([C@@H]2O[C@H](CO)[C@@H](O)[C@@H]2O)cc1/C=C/Cl [ClVaraU]
[1]
  potency in vivo per unit weight: less potent in vivo

## O=c1[nH]c(=O)n([C@@H]2O[C@H](CO)[C@@H](O)[C@@H]2O)cc1/C=C/F [FVaraU]
[1]
  potency in vivo per unit weight: less potent in vivo
